# Results taken from PubChem BioAssay (NCI).
#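 Interpolation was linear, between the two tested concentrations surrounding the appropriate level; five concentrations were tested over 48 hours in 96-well plates. TGI is the concentration that stops growth completely.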
# Assays:
# Assay in all cases: inhibition of tumour cell growth, NCI panel, 48 h
# [1] = tested on: MDA-N
# [2] = tested on: HCT-116 colon
# [3] = tested on: PC-3 prostate
# [4] = tested on: LOX IMVI melanoma
# [5] = tested on: A498 renal
# [6] = tested on: UACC-257 melanoma
# [7] = tested on: BT-549 breast
# [8] = tested on: KM12 colon
# [9] = tested on: CAKI-1 renal
# [10] = tested on: MCF7 breast
# [11] = tested on: M14 melanoma
# [12] = tested on: HOP-62 NSCLC
# [13] = tested on: NCI-H23 lung
# [14] = tested on: SN12C renal
# [15] = tested on: U251 CNS
# [16] = tested on: T-47D breast
# [17] = tested on: SK-MEL-28 melanoma
# [18] = tested on: SW-620 colon
# [19] = tested on: MOLT-4 leukemia
# [20] = tested on: SNB-19 CNS
# [21] = tested on: ACHN renal
# [22] = tested on: UO-31 renal
# [23] = tested on: SK-MEL-2 melanoma
# [24] = tested on: MDA-MB-435
# [25] = tested on: DU-145 prostate
# [26] = tested on: MDA-MB-231 breast
# [27] = tested on: HT29 colon
# [28] = tested on: TK-10 renal
# [29] = tested on: SR leukemia
# [30] = tested on: EKVX NSCLC
# [31] = tested on: OVCAR-8 ovarian
# [32] = tested on: OVCAR-5 ovarian
# [33] = tested on: UACC-62 melanoma
# [34] = tested on: SK-OV-3 ovarian
# [35] = tested on: NCI-H226 lung
# [36] = tested on: NCI/ADR-RES ovarian
# [37] = tested on: 786-0 renal
# [38] = tested on: MALME-3M melanoma
# [39] = tested on: SK-MEL-5 melanoma
# [40] = tested on: HS 578T breast
# [41] = tested on: NCI-H460 lung
# [42] = tested on: NCI-H522 lung
# [43] = tested on: HCC-2998 colon
# [44] = tested on: K-562 leukemia
# [45] = tested on: RXF 393 renal
# [46] = tested on: HOP-92 NSCLC
# [47] = tested on: A549 NSCLC
# [48] = tested on: SNB-75 CNS
# [49] = tested on: COLO 205 colon
# [50] = tested on: HL-60(TB) leukemia
# [51] = tested on: SF-539 CNS
# [52] = tested on: CCRF-CEM leukemia
# [53] = tested on: OVCAR-3 ovarian
# [54] = tested on: SF-268 CNS
# [55] = tested on: SF-295 CNS
# [56] = tested on: OVCAR-4 ovarian
# [57] = tested on: HCT-15 colon
# [58] = tested on: RPMI-8226 leukemia
# [59] = tested on: IGROV1 ovarian
compound,measurement,setting,value
CC1(C)CC(=O)c2c(nc3c4c([nH]c(-c5ccc([N+](=O)[O-])cc5)c24)CC(C)(C)C3)C1,TGI,[1],> 100 µM
same,TGI,[2],> 100 µM
same,TGI,[3],> 100 µM
same,TGI,[4],> 100 µM
same,TGI,[5],44.6 µM
same,TGI,[6],> 100 µM
same,TGI,[7],> 100 µM
same,TGI,[8],> 100 µM
same,TGI,[9],> 100 µM
same,TGI,[10],> 100 µM
same,TGI,[11],> 100 µM
same,TGI,[12],> 100 µM
same,TGI,[13],> 100 µM
same,TGI,[14],> 100 µM
same,TGI,[15],> 100 µM
same,TGI,[16],> 100 µM
same,TGI,[17],> 100 µM
same,TGI,[18],> 100 µM
same,TGI,[19],> 100 µM
same,TGI,[20],> 100 µM
same,TGI,[21],> 100 µM
same,TGI,[22],> 100 µM
same,TGI,[23],> 100 µM
same,TGI,[24],> 100 µM
same,TGI,[25],> 100 µM
same,TGI,[26],> 100 µM
same,TGI,[27],> 100 µM
same,TGI,[28],> 100 µM
same,TGI,[29],47.9 µM
same,TGI,[30],> 100 µM
same,TGI,[31],> 100 µM
same,TGI,[32],> 100 µM
same,TGI,[33],93.4 µM
same,TGI,[34],> 100 µM
same,TGI,[35],> 100 µM
same,TGI,[36],> 100 µM
same,TGI,[37],> 100 µM
same,TGI,[38],> 100 µM
same,TGI,[39],> 100 µM
same,TGI,[40],> 100 µM
same,TGI,[41],> 100 µM
same,TGI,[42],> 100 µM
same,TGI,[43],> 100 µM
same,TGI,[44],> 100 µM
same,TGI,[45],> 100 µM
same,TGI,[46],> 100 µM
same,TGI,[47],> 100 µM
same,TGI,[48],> 100 µM
same,TGI,[49],59 µM
same,TGI,[50],> 100 µM
same,TGI,[51],> 100 µM
same,TGI,[52],> 100 µM
same,TGI,[53],> 100 µM
same,TGI,[54],> 100 µM
same,TGI,[55],> 100 µM
same,TGI,[56],> 100 µM
same,TGI,[57],> 100 µM
COc1cc(OC)c2nc3occc3c(OC)c2c1,TGI,[1],> 100 µM
same,TGI,[2],> 100 µM
same,TGI,[3],> 100 µM
same,TGI,[4],> 100 µM
same,TGI,[5],> 100 µM
same,TGI,[6],> 100 µM
same,TGI,[7],> 100 µM
same,TGI,[8],> 100 µM
same,TGI,[9],> 100 µM
same,TGI,[10],> 100 µM
same,TGI,[11],> 100 µM
same,TGI,[12],> 100 µM
same,TGI,[13],> 100 µM
same,TGI,[14],> 100 µM
same,TGI,[15],> 100 µM
same,TGI,[16],> 100 µM
same,TGI,[17],> 100 µM
same,TGI,[18],> 100 µM
same,TGI,[19],> 100 µM
same,TGI,[58],> 100 µM
same,TGI,[20],> 100 µM
same,TGI,[21],> 100 µM
same,TGI,[22],> 100 µM
same,TGI,[23],> 100 µM
same,TGI,[24],> 100 µM
same,TGI,[25],> 100 µM
same,TGI,[26],> 100 µM
same,TGI,[27],> 100 µM
same,TGI,[28],> 100 µM
same,TGI,[29],> 100 µM
same,TGI,[30],> 100 µM
same,TGI,[31],> 100 µM
same,TGI,[32],> 100 µM
same,TGI,[33],> 100 µM
same,TGI,[34],> 100 µM
same,TGI,[35],> 100 µM
same,TGI,[36],> 100 µM
same,TGI,[37],> 100 µM
same,TGI,[38],> 100 µM
same,TGI,[39],> 100 µM
same,TGI,[40],> 100 µM
same,TGI,[41],> 100 µM
same,TGI,[42],> 100 µM
same,TGI,[43],> 100 µM
same,TGI,[45],> 100 µM
same,TGI,[59],> 100 µM
same,TGI,[46],> 100 µM
same,TGI,[47],> 100 µM
same,TGI,[48],> 100 µM
same,TGI,[49],> 100 µM
same,TGI,[50],> 100 µM
same,TGI,[51],> 100 µM
same,TGI,[52],> 100 µM
same,TGI,[53],> 100 µM
same,TGI,[54],> 100 µM
same,TGI,[55],> 100 µM
same,TGI,[56],> 100 µM
same,TGI,[57],> 100 µM
